1 compound from article PMC5218480 (PLoS ONE, 2017) can be followed below.

This assay has as its system MV-4-11 cells. Nature of the assay: Gene expression microarray analysis (Affymetrix PrimeView) and GSEA. Particulars: MV-4-11 cells, 48 hours. The format is cell-based, human. On the set-up: RFU PODN (11730768_x_at) / Fold change /veh PODN (11730768_x_at) / RFU LINC00158 (11744669_a_at) / Fold change /veh LINC00158 (11744669_a_at) / RFU DUSP10 (11751237_a_at) / Fold change /veh DUSP10 (11751237_a_at) / RFU ID3 (11757404_x_at) / Fold change /veh ID3 (11757404_x_at) / RFU PLEKHG5 (11737974_s_at) / Fold change /veh PLEKHG5 (11737974_s_at) / RFU LRRC4B (11730491_at) / Fold change /veh LRRC4B (11730491_at) / RFU GIMAP4 (11747438_a_at) / Fold change /veh GIMAP4 (11747438_a_at) / RFU KRT8 (11758183_x_at) / Fold change /veh KRT8 (11758183_x_at) / RFU CNN1 (11734310_a_at) / Fold change /veh CNN1 (11734310_a_at) / RFU VPS37D (11726825_at) / Fold change /veh VPS37D (11726825_at) / RFU C10orf10 (11716522_x_at) / Fold change /veh C10orf10 (11716522_x_at) / RFU KIR2DL2 /// KIR2DL4 /// KIR2DL5A /// KIR2DL5B /// KIR2DS1 /// KIR2DS2 /// KIR2DS3 /// KIR2DS4 /// KIR3DL3 /// KIR3DL3 /// KIR3DS1 (11738374_at) / Fold change /veh KIR2DL2 /// KIR2DL4 /// KIR2DL5A /// KIR2DL5B /// KIR2DS1 /// KIR2DS2 /// KIR2DS3 /// KIR2DS4 /// KIR3DL3 /// KIR3DL3 /// KIR3DS1 (11738374_at) / RFU C1QL1 (11718748_at) / Fold change /veh C1QL1 (11718748_at) / RFU TMPRSS4 (11747572_a_at) / Fold change /veh TMPRSS4 (11747572_a_at) / RFU HAMP (11756126_x_at) / Fold change /veh HAMP (11756126_x_at) / RFU RNFT2 (11725882_a_at) / Fold change /veh RNFT2 (11725882_a_at) / RFU NR4A2 (11747474_a_at) / Fold change /veh NR4A2 (11747474_a_at) / RFU ABCC12 (11746883_a_at) / Fold change /veh ABCC12 (11746883_a_at) / RFU TMEM136 (11760407_x_at) / Fold change /veh TMEM136 (11760407_x_at) / RFU CLDN22 /// WWC2 (11732394_at) / Fold change /veh CLDN22 /// WWC2 (11732394_at) / RFU HLA-DPB1 (11760878_x_at) / Fold change /veh HLA-DPB1 (11760878_x_at) / RFU SPINT1 (11716480_a_at) / Fold change /veh SPINT1 (11716480_a_at) / RFU GAP43 (11754022_s_at) / Fold change /veh GAP43 (11754022_s_at) / RFU A4GNT (11735810_at) / Fold change /veh A4GNT (11735810_at) / RFU PRB3 (11715151_x_at) / Fold change /veh PRB3 (11715151_x_at) / RFU TUBB4B (11761932_at) / Fold change /veh TUBB4B (11761932_at) / RFU CAPN14 (11732068_a_at) / Fold change /veh CAPN14 (11732068_a_at) / RFU TMCC2 (11721928_a_at) / Fold change /veh TMCC2 (11721928_a_at) / RFU IRGQ (11745062_a_at) / Fold change /veh IRGQ (11745062_a_at) / RFU FAM174B (11720279_a_at) / Fold change /veh FAM174B (11720279_a_at) / RFU TMPRSS4 (11748680_a_at) / Fold change /veh TMPRSS4 (11748680_a_at) / RFU FAM212B (11763350_a_at) / Fold change /veh FAM212B (11763350_a_at) / RFU PLEKHG5 (11743358_a_at) / Fold change /veh PLEKHG5 (11743358_a_at) / RFU ZSCAN30 (11745921_a_at) / Fold change /veh ZSCAN30 (11745921_a_at) / RFU CMKLR1 (11741424_a_at) / Fold change /veh CMKLR1 (11741424_a_at) / RFU LOC101060620 /// MAPK8IP1 (11723275_at) / Fold change /veh LOC101060620 /// MAPK8IP1 (11723275_at) / RFU SPTSSB (11747773_x_at) / Fold change /veh SPTSSB (11747773_x_at) / RFU PRSS12 (11739890_at) / Fold change /veh PRSS12 (11739890_at) / RFU BIN1 (11741810_x_at) / Fold change /veh BIN1 (11741810_x_at) / RFU WNT11 (11732464_a_at) / Fold change /veh WNT11 (11732464_a_at) / RFU C10orf10 (11716521_a_at) / Fold change /veh C10orf10 (11716521_a_at) / RFU C5orf56 (11738089_at) / Fold change /veh C5orf56 (11738089_at) / RFU CYB561 (11721691_x_at) / Fold change /veh CYB561 (11721691_x_at) / RFU ANKRD19P (11752326_a_at) / Fold change /veh ANKRD19P (11752326_a_at) / RFU OR2T12 /// OR2T33 /// OR2T8 (11738714_s_at) / Fold change /veh OR2T12 /// OR2T33 /// OR2T8 (11738714_s_at) / RFU VCAN (11748164_a_at) / Fold change /veh VCAN (11748164_a_at) / RFU JSRP1 (11732532_at) / Fold change /veh JSRP1 (11732532_at) / RFU KRTAP10-11 (11738290_x_at) / Fold change /veh KRTAP10-11 (11738290_x_at) / RFU MYO3A (11730013_a_at) / Fold change /veh MYO3A (11730013_a_at) / RFU EBF3 (11725865_a_at) / Fold change /veh EBF3 (11725865_a_at) / RFU CAMK2N1 (11719241_x_at) / Fold change /veh CAMK2N1 (11719241_x_at) / RFU C5orf56 (11738088_a_at) / Fold change /veh C5orf56 (11738088_a_at) / RFU OLFML3 (11715873_a_at) / Fold change /veh OLFML3 (11715873_a_at) / RFU LOC100653217 /// NTM (11731650_a_at) / Fold change /veh LOC100653217 /// NTM (11731650_a_at) / RFU MAPK11 (11762145_a_at) / Fold change /veh MAPK11 (11762145_a_at) / RFU FIZ1 (11724087_x_at) / Fold change /veh FIZ1 (11724087_x_at) / RFU OASL (11726364_x_at) / Fold change /veh OASL (11726364_x_at) / RFU SOX15 (11748057_x_at) / Fold change /veh SOX15 (11748057_x_at) / RFU CD79A (11719716_a_at) / Fold change /veh CD79A (11719716_a_at) / RFU HIST1H1D (11736915_at) / Fold change /veh HIST1H1D (11736915_at) / RFU CASKIN2 (11723855_a_at) / Fold change /veh CASKIN2 (11723855_a_at) / RFU LOC730098 (11760151_x_at) / Fold change /veh LOC730098 (11760151_x_at) / RFU OR4N2 (11742367_at) / Fold change /veh OR4N2 (11742367_at) / RFU PRRT2 (11749266_a_at) / Fold change /veh PRRT2 (11749266_a_at) / RFU SNX32 (11753110_a_at) / Fold change /veh SNX32 (11753110_a_at) / RFU CDHR5 (11726645_a_at) / Fold change /veh CDHR5 (11726645_a_at) / RFU RCAN1 (11760418_a_at) / Fold change /veh RCAN1 (11760418_a_at) / RFU FAM167A (11723789_a_at) / Fold change /veh FAM167A (11723789_a_at) / RFU FAM26E (11764081_at) / Fold change /veh FAM26E (11764081_at) / RFU ISYNA1 (11749810_s_at) / Fold change /veh ISYNA1 (11749810_s_at) / RFU ACY1 (11761880_at) / Fold change /veh ACY1 (11761880_at) / RFU 11764098_at / Fold change /veh 11764098_at / RFU SAMD14 (11745864_x_at) / Fold change /veh SAMD14 (11745864_x_at) / RFU NPB (11741838_a_at) / Fold change /veh NPB (11741838_a_at) / RFU TMPRSS6 (11731388_a_at) / Fold change /veh TMPRSS6 (11731388_a_at) / RFU KRTAP10-2 (11738614_at) / Fold change /veh KRTAP10-2 (11738614_at) / RFU ARHGAP8 /// PRR5-ARHGAP8 (11727945_x_at) / Fold change /veh ARHGAP8 /// PRR5-ARHGAP8 (11727945_x_at) / RFU KRTAP5-7 /// NADSYN1 (11734609_at) / Fold change /veh KRTAP5-7 /// NADSYN1 (11734609_at) / RFU RASL12 (11751679_a_at) / Fold change /veh RASL12 (11751679_a_at) / RFU CDKN2B (11736163_a_at) / Fold change /veh CDKN2B (11736163_a_at) / RFU PRF1 (11729649_at) / Fold change /veh PRF1 (11729649_at) / RFU, ZNF638 /// ZNF638-IT1 / Fold change vs veh, ZNF638 /// ZNF638-IT1 / RFU, PANK3 / Fold change vs veh, PANK3 / RFU, SH3YL1 / Fold change vs veh, SH3YL1 / RFU, ZEB2 / Fold change vs veh, ZEB2 / RFU, NRIP1 / Fold change vs veh, NRIP1 / RFU, PTTG1IP / Fold change vs veh, PTTG1IP / RFU, CAPN2 / Fold change vs veh, CAPN2 / RFU, MED14 / Fold change vs veh, MED14 / RFU, SNORA58 / Fold change vs veh, SNORA58 / RFU, C1orf63 / Fold change vs veh, C1orf63 / RFU, LRRFIP1 / Fold change vs veh, LRRFIP1 / RFU, NDUFAF7 / Fold change vs veh, NDUFAF7 / RFU, SLC12A2 / Fold change vs veh, SLC12A2 / RFU, IBTK / Fold change vs veh, IBTK / RFU, ESF1 / Fold change vs veh, ESF1 / Fold change vs veh, TMEM50B / RFU, TAOK1 / Fold change vs veh, TAOK1 / RFU, ACBD3 / Fold change vs veh, ACBD3 / RFU, TMA16 / Fold change vs veh, TMA16 / RFU, RWDD3 / Fold change vs veh, RWDD3 / RFU, BCAT1 / Fold change vs veh, BCAT1 / RFU, EDEM3 / Fold change vs veh, EDEM3 / RFU, TMEM33 / Fold change vs veh, TMEM33 / RFU, WDR75 / Fold change vs veh, WDR75 / RFU, AHCTF1 / Fold change vs veh, AHCTF1 / RFU, TFRC / Fold change vs veh, TFRC / RFU, ZDHHC17 / Fold change vs veh, ZDHHC17 / RFU, NOM1 / Fold change vs veh, NOM1 / RFU, ARL8B / Fold change vs veh, ARL8B / RFU, ZBTB11 / Fold change vs veh, ZBTB11 / RFU, TAMM41 / Fold change vs veh, TAMM41 / RFU, KIAA1704 /// LOC100996395 / Fold change vs veh, KIAA1704 /// LOC100996395 / RFU, ING1 / Fold change vs veh, ING1 / RFU, TRMT61B / Fold change vs veh, TRMT61B / RFU, FUBP3 / Fold change vs veh, FUBP3 / RFU, TP53 / Fold change vs veh, TP53 / RFU, TNKS2 / Fold change vs veh, TNKS2 / RFU, ZFP14 / Fold change vs veh, ZFP14 / RFU, ACTR2 / Fold change vs veh, ACTR2 / RFU, PPP3R1 / Fold change vs veh, PPP3R1 / RFU, PIK3R1 / Fold change vs veh, PIK3R1 / RFU, HNRNPA1 / Fold change vs veh, HNRNPA1 / RFU, RNF170 / Fold change vs veh, RNF170 / RFU, ZNF28 / Fold change vs veh, ZNF28 / RFU, RNGTT / Fold change vs veh, RNGTT / RFU, OGT / Fold change vs veh, OGT / RFU, BRD1 / Fold change vs veh, BRD1 / RFU, MARS / Fold change vs veh, MARS / RFU, ZNF655 / Fold change vs veh, ZNF655 / RFU, FAHD1 / Fold change vs veh, FAHD1 / RFU, BDP1 / Fold change vs veh, BDP1 / RFU, LRRCC1 / Fold change vs veh, LRRCC1 / RFU, ARID1A / Fold change vs veh, ARID1A / RFU, ZNF146 / Fold change vs veh, ZNF146 / RFU, ZNF330 / Fold change vs veh, ZNF330 / RFU, GPN3 / Fold change vs veh, GPN3 / RFU, C9orf123 / Fold change vs veh, C9orf123 / RFU, N4BP2L2 / Fold change vs veh, N4BP2L2 / RFU, ARFIP1 / Fold change vs veh, ARFIP1 / RFU, FAM179B / Fold change vs veh, FAM179B / RFU, BCL10 / Fold change vs veh, BCL10 / RFU, UHRF1BP1L / Fold change vs veh, UHRF1BP1L / RFU, BET1 / Fold change vs veh, BET1 / RFU, CNOT2 / Fold change vs veh, CNOT2 / RFU, ZNF268 / Fold change vs veh, ZNF268 / Fold change vs veh, ZNF507 / RFU, DGCR2 / Fold change vs veh, DGCR2 / RFU, WDSUB1 / Fold change vs veh, WDSUB1 / Fold change vs veh, HSP90B1 /// MIR3652 / RFU, ADSS / Fold change vs veh, ADSS / RFU, GK / Fold change vs veh, GK / RFU, ZNF148 / Fold change vs veh, ZNF148 / RFU, TAF9 / Fold change vs veh, TAF9 / RFU, SLC1A5 / Fold change vs veh, SLC1A5 / RFU, SLMO2 / Fold change vs veh, SLMO2 / RFU, ABCC4 / Fold change vs veh, ABCC4 / RFU, LOC101060439 /// RAP1B / Fold change vs veh, LOC101060439 /// RAP1B / RFU, RFX7 / Fold change vs veh, RFX7 / RFU, GTPBP10 / Fold change vs veh, GTPBP10 / RFU, CNEP1R1 / Fold change vs veh, CNEP1R1 / RFU, BIVM-ERCC5 /// ERCC5 / Fold change vs veh, BIVM-ERCC5 /// ERCC5 / RFU, ILF3 / Fold change vs veh, ILF3 / RFU 11762660_at / Fold change /veh 11762660_at / RFU VCAN (11757783_s_at) / Fold change /veh VCAN (11757783_s_at) / RFU DDX43 (11728927_at) / Fold change /veh DDX43 (11728927_at) / RFU KRT8 (11758188_x_at) / Fold change /veh KRT8 (11758188_x_at) / RFU NKD1 (11759106_at) / Fold change /veh NKD1 (11759106_at) / RFU SRD5A1 (11742802_a_at) / Fold change /veh SRD5A1 (11742802_a_at) / RFU TPSAB1 /// TPSB2 (11721975_s_at) / Fold change /veh TPSAB1 /// TPSB2 (11721975_s_at) / RFU GSTM3 (11746129_a_at) / Fold change /veh GSTM3 (11746129_a_at) / RFU IL23R (11737362_x_at) / Fold change /veh IL23R (11737362_x_at) / RFU TMEM51 (11727254_a_at) / Fold change /veh TMEM51 (11727254_a_at) / RFU PIWIL2 (11732686_x_at) / Fold change /veh PIWIL2 (11732686_x_at) / RFU ORM1 (11744905_x_at) / Fold change /veh ORM1 (11744905_x_at) / RFU CCDC152 (11743942_at) / Fold change /veh CCDC152 (11743942_at) / RFU ECM1 (11717891_a_at) / Fold change /veh ECM1 (11717891_a_at) / RFU IL23R (11748794_a_at) / Fold change /veh IL23R (11748794_a_at) / RFU TNFAIP8L3 (11732012_x_at) / Fold change /veh TNFAIP8L3 (11732012_x_at) / RFU MBOAT4 (11741988_at) / Fold change /veh MBOAT4 (11741988_at) / RFU 11764193_at / Fold change /veh 11764193_at / RFU TMEM53 (11763286_at) / Fold change /veh TMEM53 (11763286_at) / RFU MAGEB2 (11727129_at) / Fold change /veh MAGEB2 (11727129_at) / RFU TMEM200A (11744735_a_at) / Fold change /veh TMEM200A (11744735_a_at) / RFU CCDC152 (11751479_a_at) / Fold change /veh CCDC152 (11751479_a_at) / RFU FAM211A (11726209_a_at) / Fold change /veh FAM211A (11726209_a_at) / RFU RGS16 (11746705_a_at) / Fold change /veh RGS16 (11746705_a_at) / RFU VCAN (11755009_s_at) / Fold change /veh VCAN (11755009_s_at) / RFU RHOB (11743442_s_at) / Fold change /veh RHOB (11743442_s_at) / RFU RGS16 (11720943_a_at) / Fold change /veh RGS16 (11720943_a_at) / RFU RGS16 (11720944_at) / Fold change /veh RGS16 (11720944_at) / RFU, VPS4B / Fold change vs veh, VPS4B / RFU, CREB1 / Fold change vs veh, CREB1 / RFU, DNAJC13 / Fold change vs veh, DNAJC13 / RFU, GNAQ / Fold change vs veh, GNAQ / RFU, CDK5R1 / Fold change vs veh, CDK5R1 / RFU, ZRANB3 / Fold change vs veh, ZRANB3 / RFU, CUL4A / Fold change vs veh, CUL4A / RFU, CCNY / Fold change vs veh, CCNY / RFU, UFL1 / Fold change vs veh, UFL1 / RFU, COG3 / Fold change vs veh, COG3 / RFU, DIAPH2 / Fold change vs veh, DIAPH2 / RFU, SKA2 / Fold change vs veh, SKA2 / RFU, AFF3 / Fold change vs veh, AFF3 / RFU, LMF1 / Fold change vs veh, LMF1 / RFU, IPO11 / Fold change vs veh, IPO11 / RFU, DFFB / Fold change vs veh, DFFB / RFU, FOXP1 / Fold change vs veh, FOXP1 / RFU, CARD8 / Fold change vs veh, CARD8 / RFU, STRN3 / Fold change vs veh, STRN3 / RFU, ADK / Fold change vs veh, ADK / RFU, RASSF2 / Fold change vs veh, RASSF2 / RFU, WIPF1 / Fold change vs veh, WIPF1 / RFU, LARP1B / Fold change vs veh, LARP1B / RFU, RASA1 / Fold change vs veh, RASA1 / RFU, RB1 / Fold change vs veh, RB1 / RFU, PPFIA1 / Fold change vs veh, PPFIA1 / RFU, MAT2A / Fold change vs veh, MAT2A / RFU, CCT5 / Fold change vs veh, CCT5 / RFU, WDR92 / Fold change vs veh, WDR92 / RFU, CUX1 / Fold change vs veh, CUX1 / RFU, TTC7A / Fold change vs veh, TTC7A / RFU, TMEM135 / Fold change vs veh, TMEM135 / RFU, DEPTOR / Fold change vs veh, DEPTOR / RFU, CPM / Fold change vs veh, CPM / RFU, DNAJB6 / Fold change vs veh, DNAJB6 / RFU, CACNA2D3 / Fold change vs veh, CACNA2D3 / RFU, DTX4 / Fold change vs veh, DTX4 / RFU, TFCP2 / Fold change vs veh, TFCP2 / RFU, GMCL1 /// GMCL1P1 / Fold change vs veh, GMCL1 /// GMCL1P1 / RFU, AEBP2 / Fold change vs veh, AEBP2 / RFU, SNHG1 /// SNORD22 /// SNORD25 /// SNORD26 /// SNORD27 /// SNORD28 /// SNORD29 /// SNORD31 / Fold change vs veh, SNHG1 /// SNORD22 /// SNORD25 /// SNORD26 /// SNORD27 /// SNORD28 /// SNORD29 /// SNORD31 / Fold change (Aza/veh), C12orf56 (ProbeSet 11735607_a_at) / Fold change (ACY-1035/veh), C12orf56 (ProbeSet 11735607_a_at) / Fold change (Aza/veh), FGFR1OP (ProbeSet 11751329_s_at) / Fold change (ACY-1035/veh), FGFR1OP (ProbeSet 11751329_s_at) / Fold change (Aza/veh), VPS36 (ProbeSet 11739960_a_at) / Fold change (ACY-1035/veh), VPS36 (ProbeSet 11739960_a_at) / RFU SYPL1 (11715823_x_at) / Fold change /veh SYPL1 (11715823_x_at) / RFU IGFBP7 (11715501_s_at) / Fold change /veh IGFBP7 (11715501_s_at) / RFU REEP3 (11722064_at) / Fold change /veh REEP3 (11722064_at) / RFU IGLL1 (11728026_x_at) / Fold change /veh IGLL1 (11728026_x_at): dose or concentration left out as unconfirmed.

Take `Nc1ncn([C@@H]2O[C@H](CO)[C@@H](O)[C@H]2O)c(=O)n1` [azacitidine]: the “Fold change /veh PRSS12 (11739890_at)” value is reported as 0.94.
